Experimental data: patent publication US9990464B1, “Label-free biomolecular interaction analysis using a rapid analyte dispersion injection method” (SENSIQ TECHNOLOGIES, INC., priority 2012, dated 2018)

Assay: apparent (effective) diffusion coefficient from internal standard-based calibration of the dispersion model
Type: physicochemical
Settings: coiled tube, 50 μL/min, 25° C.; sucrose internal standard and Equation 1 calibration by Mr
Description: In one example, the rapid dispersion injection method is performed in a biosensor comprising a flow channel conduit that is in fluid connection with a flow cell conduit downstream from the analyte sample injection point. The flow channel conduit is tightly coiled around a vertically-oriented support and is preferably filled with a carrier fluid free of analyte prior to the analyte sample injection. Although it is preferred to use a vertically-oriented coil, it is not essential and other configurations are possible. The flow cell conduit houses at least two sensing regions, a first sensing region having one or more ligands immobilized on its surface and a second sensing region free of ligand. A first fluid sample comprising a reference material (e.g. sucrose) of sufficient molecular weight and concentration to elicit a bulk refractive index response is injected into the flow channel conduit under conditions sufficient to cause the reference material to undergo a dispersion event in route to the flow cell thereby producing a concentration gradient. […] The bulk refractive index response of the reference material is recorded at the second sensing surface as the first fluid sample flows continuously through the flow cell thereby generating a standard curve. The standard curve provides an internal standard which acts as a witness to the particular injection conditions of that assay. The standard curve is then fitted to the dispersion model (Equations 2 and 3 described below) to calculate a reference diffusion coefficient. […]
In brief, the universal calibration function was determined by measuring the bulk refractive index response of eight different compounds of varying molecular (Mr) under twenty-seven experimental dispersion conditions. […] An apparent diffusion coefficient (D′) was obtained for the eight compounds by fitting the dispersion model defined by Equations 2 and 3 (set forth below) to each measured bulk refractive index response curve. […]

Row | Compound | Dapp (apparent / effective diffusion coefficient) [m^2s^−1]
1 | NS(=O)(=O)c1cc(C(=O)O)c(NCc2ccco2)cc1Cl [Furosemide, furosemide] | 8.29E−10
2 | NS(=O)(=O)c1ccc(C(=O)O)cc1 [CBS, 4-carboxybenzenesulfonamide] | 1.01E−09
3 | CC(=O)Nc1nnc(S(N)(=O)=O)s1 [Acetazolamide, acetazolamide] | 9.67E−10
